Source: patent publication US20080242649A1, “New Combination 665” (priority 2007, published 2008)
Where a name gives a salt, the structure may show the parent alone.

Assays:
[1] = test system: histamine-induced bronchoconstriction; assay: Lung function in anaesthetized guinea-pigs, histamine challenge; type: in vivo, Dunkin-Hartley guinea pig; conditions: for inhibition of histamine-induced bronchoconstriction: histamine 5 μg/kg i.v.; for increase in bronchoconstriction: histamine 5 μg/kg, vehicle 1100±161%
Method: Evaluation of Lung Function in Anaesthetized Guinea-Pigs
Male Dunkin-Hartley guinea pigs (300-600 g) were weighed and dosed with vehicle (0.05M phosphate, 0.1% Tween 80, 0.6% saline, pH 6) or compound via the intratracheal route under recoverable gaseous anaesthesia (5% halothane in oxygen). Animals were dosed with compound or vehicle two hours prior to the administration of histamine or methacholine.
Guinea pigs were anaesthetized with pentobarbitone (1 mL/kg of 60 mg/mL solution i.p.) approximately 30 minutes prior to the first bronchoconstrictor administration. The trachea was cannulated and the animal ventilated using a constant volume respiratory pump (Harvard Rodent Ventilator model 683) at a rate of 60 breath/min and a tidal volume of 5 ml/kg. A jugular vein was cannulated for the administration of histamine, methacholine or maintenance anaesthetic (0.1 mL of pentobarbitone solution, 60 mg/mL, as required).
The animals were transferred to a Flexivent System (SCIREQ, Montreal, Canada) in order to measure airway resistance. The animals were ventilated (quasi-sinusoidal ventilation pattern) at 60 breaths/min at a tidal volume of 5 mL/kg. A positive end expiratory pressure of 2-3 cmH2O was applied. Respiratory resistance was measured using the Flexivent “snapshot” facility (1 second duration, 1 Hz frequency). Once stable baseline resistance value had been obtained the animals were given histamine or methacholine in ascending doses (0.5, 1, 2, 3 and 5 μg/kg, i.v.) at approximately 4-minute intervals via the jugular catheter. After each administration of bronchoconstrictor the peak resistance value was recorded. Guinea pigs were euthanized with approximately 1.0 mL pentobarbitone sodium (Euthatal) intravenously after the completion of the lung function measurements. Percentage bronchoprotection produced by a compound was calculated at each dose of brochoconstrictor as follows:
Where % change Rveh is the mean of the maximum percentage change in airway resistance in the vehicle treated group. The results reported were measured after 5 μg/kg histamine or methacholine and were expressed as percentage bronchoprotection (mean ±s.e.mean).

[2] = target: T1, recombinant human α1D receptor (Homo sapiens, UniProt P25100); assay: Adrenergic α1D [3H]-prazosin binding, HEK293 membranes; conditions: inhibition of [3H]-prazosin binding; read-out: α1 bind pIC50 (converted)
T1 construct: expressed in transfected cells; host or cells: HEK293 cells (membranes)
T1 sequence (P25100 1-572): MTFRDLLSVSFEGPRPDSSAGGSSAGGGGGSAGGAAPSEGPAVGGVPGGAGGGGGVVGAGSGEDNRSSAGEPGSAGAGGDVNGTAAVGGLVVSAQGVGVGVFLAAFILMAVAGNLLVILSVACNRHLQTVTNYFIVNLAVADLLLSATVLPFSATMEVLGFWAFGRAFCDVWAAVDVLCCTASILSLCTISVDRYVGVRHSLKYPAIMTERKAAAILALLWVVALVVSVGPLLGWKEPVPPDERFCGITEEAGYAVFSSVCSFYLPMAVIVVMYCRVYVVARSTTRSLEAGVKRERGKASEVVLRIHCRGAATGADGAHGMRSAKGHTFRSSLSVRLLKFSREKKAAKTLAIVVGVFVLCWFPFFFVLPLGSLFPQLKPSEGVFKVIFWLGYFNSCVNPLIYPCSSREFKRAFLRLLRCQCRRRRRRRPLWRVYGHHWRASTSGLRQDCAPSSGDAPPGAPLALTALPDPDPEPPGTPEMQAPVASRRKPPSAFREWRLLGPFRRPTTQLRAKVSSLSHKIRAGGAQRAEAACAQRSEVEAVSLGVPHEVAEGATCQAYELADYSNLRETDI
Method: Membranes were prepared from human embryonic kidney 293 (HEK293) cells expressing recombinant human α1D receptor. These were diluted in Assay Buffer (50 mM HEPES, 1 mM EDTA, 0.1% gelatin, pH 7.4) to provide a final concentration of membranes that gave a clear window between maximum and minimum specific binding.
Assays were performed in U-bottomed 96-well polypropylene plates. 10 μL [^3H]-prazosin (0.3 nM final concentration) and 10 μL of Compound A (10× final concentration) were added to each test well. For each assay plate 8 replicates were obtained for [^3H]-prazosin binding in the presence of 10 μL vehicle (10% (v/v) DMSO in Assay Buffer; defining maximum binding) or 10 μL BMY7378 (10 μM final concentration; defining non-specific binding (NSB)). Membranes were then added to achieve a final volume of 100 μL. […] Five washes with 250 μL wash buffer (50 mM HEPES, 1 mM EDTA, pH 7.4) were performed at 4° C. to remove unbound radioactivity. […] The plates were sealed (TopSeal A) and filter-bound radioactivity was measured with a scintillation counter (TopCount, Packard BioScience) using a 3-minute counting protocol.
Total specific binding (B0) was determined by subtracting the mean NSB from the mean maximum binding. […]

guinea pig trachea = assay: Bronchodilator onset in guinea pig isolated tracheal ring contracted with methacholine
Method: Evaluation of Bronchodilator Activity in the Guinea Pig Isolated Tracheal Ring Preparation
Guinea pigs (300-500 g) were killed by cervical dislocation and the trachea was isolated. The trachea was cut into segments 2-3 cartilage rings in width and suspended in 10 ml organ baths in modified Krebs' solution (mM; NaCl, 90; NaHCO3, 45; KCl, 5; MgSO4.7H2O, 0.5; Na2HPO4.2H2O, 1; CaCl2, 2.25; glucose, 10; pH 7.4) gassed with 5% CO2, 95% […] at 37° C.). The tracheal rings were attached to an isometric force transducer for the measurement of isometric tension. The tissues were washed and a force of 1 g was applied to each tissue. The rings were contracted with methacholine (1 μM). Once the contraction had reached a plateau, vehicle (0.01% DMSO in distilled H2O), compound A (3 nM), roflumilast (1 μM) or a combination of compound A (3 nM) and roflumilast (1 μM) was added and the tissue left until the response had reached a plateau. Data were collected using the Chart 4 software (ADInstruments, Charlgrove, UK). The time to 90% of the maximum effect of the bronchodilator (onset time) was measured and expressed in min (mean ±s.e.mean).

CCN(CC)CCN(CCNCCc1ccc(O)c2[nH]c(=O)sc12)C(=O)CCOCCc1cccc2ccccc12 [Compound A, N-[2-(Diethylamino)ethyl]-N-(2-{[2-(4-hydroxy-2-oxo-2,3-dihydro-1,3-benzothiazol-7-yl)ethyl]amino}ethyl)-3-[2-(1-naphthyl)ethoxy]propanamide dihydrobromide]
inhibition of histamine-induced bronchoconstriction ([1]; compound A 1 μg/kg intratracheal 2 h before): 49%
increase in bronchoconstriction ([1]; compound A 1 μg/kg intratracheal): 544±60%
inhibition of histamine-induced bronchoconstriction ([1]; compound A 27 μg/kg intratracheal 2 h before): 87%
increase in bronchoconstriction ([1]; compound A 27 μg/kg intratracheal): 140±36%
IC50 [2]: 251 nM
onset time (time to 90% of the maximum effect) (guinea pig trachea; Compound A 3 nM in the presence of roflumilast 1 μM): 5.7 ± 1.0 min
onset time (time to 90% of the maximum effect) (guinea pig trachea; compound A 3 nM alone, methacholine 1 μM contraction, mean ±s.e.mean): 16 ± 3.0 min
